In paper PMC10301845, “Characterization of a Novel M4 PAM PET Radioligand [11C]PF06885190 in Nonhuman Primates (NHP)” (Molecules, 2023):
Like-named read-outs stand apart in the source and are kept apart here.

Columns and labels:
[1] = Protein binding in plasma (ultrafiltration); assay type: in vitro ADME, monkey; conditions: male, cynomolgus, monkey, plasma, read-out: free fraction in plasma
Protocol: (§1) The free fraction (fp) in blood plasma was measured using an ultrafiltration method with the blood sample collected before the injection of [^11C]PF06885190. Plasma (0.4 mL) was mixed with [^11C]PF06885190 formulation (0.04 mL, ~1 MBq) and incubated at room temperature (RT) for 10 min. To estimate the non-specific binding percent, the same process was performed on phosphate buffered saline (PBS) (0.4 mL) as a control solution. After the incubation, 0.2 mL of the plasma and PBS incubated mixtures were pipetted into ultrafiltration tubes (Centrifree YM-30, molecular weight cutoff, 30,000 Da; Millipore: Billerica, MA, USA) and centrifuged at 3800 rpm for 15 min. Equal aliquots (0.02 mL) of the ultrafiltrate (Cfree) and the plasma (Ctotal) were counted for their radioactivity with a NaI well-counter. Each determination was performed in triplicate. The free fraction was then calculated as fp = Cfree/Ctotal, and the results were corrected for the membrane binding measured with the control samples.

monkey plasma proteins = assay: Protein binding in plasma (ultrafiltration); assay type: in vitro ADME
Protocol: as §1

[2] = after pretreatment with donepezil

With `Cc1nc(N[11CH3])c2c(c1C)CN(C(=O)C[C@H]1C[C@@H]1c1ccc(F)nc1)C2` [[^11C]PF06885190] the fraction unbound at 10 min [1, 2] was 0.121, the fraction unbound at 10 min ([1]; baseline) was 0.248 and the “Binding to monkey plasma proteins” value (monkey plasma proteins; [2]) was 87.9 ± 0.3%. For the same compound, the “Binding to monkey plasma proteins” value (monkey plasma proteins; baseline) was 75.2 ± 4.2%.
